Measured values as given in patent US8791132B2, “Compounds and methods for treatment of hypertension” (Medivation Technologies, Inc., priority 2011, dated 2014).
“And” between values parts separate entries of the source, which are not always exact repeats. Identical values can stand only once. Like-named read-outs stand apart in the source and are kept apart here.

Columns and labels:
[1] = target: T1, human recombinant adrenergic α2A receptor (Homo sapiens, UniProt P08913); test: Radioligand binding, adrenergic α2A ([3H]MK-912); conditions: for inhibition at 0.1 µM / Percentage inhibition of ligand binding, Adrenergic α2A / Percentage inhibition of ligand binding, Adrenergic α2A (0.1 μM) / inhibition at 0.03 µM: [3H]MK-912; for Percentage inhibition of ligand binding, Adrenergic α2A / Percentage inhibition of ligand binding, Adrenergic α2A (0.1 μM): 0.1 µM
T1 construct: expressed in transfected cells; host or cells: insect Sf9 cells
T1 sequence (P08913 1-465): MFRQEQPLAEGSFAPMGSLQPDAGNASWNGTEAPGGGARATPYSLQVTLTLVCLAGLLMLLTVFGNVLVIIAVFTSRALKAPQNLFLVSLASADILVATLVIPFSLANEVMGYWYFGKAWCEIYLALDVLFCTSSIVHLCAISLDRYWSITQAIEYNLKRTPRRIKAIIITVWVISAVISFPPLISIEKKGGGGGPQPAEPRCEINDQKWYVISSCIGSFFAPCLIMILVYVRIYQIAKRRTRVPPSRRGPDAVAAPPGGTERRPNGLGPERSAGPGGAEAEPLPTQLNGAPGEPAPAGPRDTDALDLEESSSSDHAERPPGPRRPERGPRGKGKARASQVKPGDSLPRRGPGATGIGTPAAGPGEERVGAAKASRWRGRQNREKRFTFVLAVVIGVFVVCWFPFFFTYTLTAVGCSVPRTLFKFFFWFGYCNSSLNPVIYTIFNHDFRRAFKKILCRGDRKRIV
In short: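 Displacement of 1 nM [3H]MK-912 from receptor produced in insect Sf9 cells was measured after 60 min at 25 °C. Readout: percent inhibition of specific binding.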

[2] = target: T2, rat adrenergic α1B receptor (Rattus norvegicus, UniProt P15823); test: Radioligand binding, adrenergic α1B ([3H]Prazosin); conditions: for inhibition at 0.03 µM / inhibition at 0.1 µM / Percentage inhibition of ligand binding, Adrenergic α1B / Percentage inhibition of ligand binding, Adrenergic α1B (0.1 μM): [3H]Prazosin
T2 construct: rat adrenergic α1B receptor obtained from Wistar Rat liver; from tissue; host or cells: Wistar rat liver
T2 sequence (P15823 1-515): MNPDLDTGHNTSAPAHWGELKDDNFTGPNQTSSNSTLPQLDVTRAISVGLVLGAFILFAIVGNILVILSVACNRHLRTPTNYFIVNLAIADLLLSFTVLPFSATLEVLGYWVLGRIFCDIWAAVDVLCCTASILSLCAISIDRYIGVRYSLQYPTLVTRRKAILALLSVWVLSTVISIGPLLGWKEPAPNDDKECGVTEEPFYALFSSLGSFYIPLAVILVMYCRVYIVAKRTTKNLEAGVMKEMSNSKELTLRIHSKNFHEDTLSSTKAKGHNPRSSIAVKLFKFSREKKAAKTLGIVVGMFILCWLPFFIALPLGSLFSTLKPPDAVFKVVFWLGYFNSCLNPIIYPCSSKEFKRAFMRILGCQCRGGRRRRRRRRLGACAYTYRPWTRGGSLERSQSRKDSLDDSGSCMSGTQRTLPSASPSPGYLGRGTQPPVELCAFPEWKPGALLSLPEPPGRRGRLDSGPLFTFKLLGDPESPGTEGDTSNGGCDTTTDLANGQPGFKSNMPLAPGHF
In short: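 Specific binding, taken as total minus that remaining with 10 μM phentolamine, is measured after filtration and counting. Rat liver receptor preparation and 0.25 nM [3H]prazosin are incubated with compound in 50 mM Tris-HCl (pH 7.4, 0.5 mM EDTA) at 25° C for 60 min. Activity is reported as percent inhibition.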

[3] = target: T3, human recombinant adrenergic α2B receptor (Homo sapiens, UniProt P18089); test: Radioligand binding, adrenergic α2B ([3H]Rauwolscine); conditions: for Ki: read-out: Ki α2B
T3 construct: expressed in transfected cells; host or cells: CHO-K1
T3 sequence (P18089 1-450): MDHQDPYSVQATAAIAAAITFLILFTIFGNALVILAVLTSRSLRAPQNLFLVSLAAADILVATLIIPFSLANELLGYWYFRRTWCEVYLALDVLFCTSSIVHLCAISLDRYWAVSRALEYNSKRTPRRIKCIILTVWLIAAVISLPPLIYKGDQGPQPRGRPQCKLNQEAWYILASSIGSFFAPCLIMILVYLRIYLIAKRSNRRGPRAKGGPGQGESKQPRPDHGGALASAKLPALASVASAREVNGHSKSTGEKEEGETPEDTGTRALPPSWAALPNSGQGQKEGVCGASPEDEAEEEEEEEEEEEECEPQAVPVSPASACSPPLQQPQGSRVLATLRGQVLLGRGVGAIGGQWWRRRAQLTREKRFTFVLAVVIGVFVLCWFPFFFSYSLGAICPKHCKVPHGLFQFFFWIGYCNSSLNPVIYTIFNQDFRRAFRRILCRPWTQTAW
In short: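 Readout: percent inhibition of specific [3H]Rauwolscine binding, measured by filtration and counting. Conditions: CHO-K1 cell-expressed receptor, 2.5 nM radioligand, 60 min, 25° C, Tris-HCl pH 7.4 buffer with MgCl2, EDTA, BSA. Non-specific binding: 10 μM Prazosin.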

[4] = read-out: Percentage inhibition of ligand binding, Adrenergic α2A (0.1 μM), compound at 0.1 μM, repeat datapoints each shown
[5] = read-out: Percentage inhibition of ligand binding, Adrenergic α1B (0.03 μM), compound at 0.03 μM, repeat datapoints each shown
[6] = read-out: Percentage inhibition of ligand binding, Adrenergic α1B (0.1 μM), compound at 0.1 μM, repeat datapoints each shown
[7] = read-out: Percentage inhibition of ligand binding, Adrenergic α2B (0.03 μM), compound at 0.03 μM, [3H]Rauwolscine, repeat datapoints each shown
[8] = read-out: Percentage inhibition of ligand binding, Adrenergic α2B (0.1 μM), compound at 0.1 μM, [3H]Rauwolscine, repeat datapoints each shown
[9] = compound at 0.1 μM, repeat assays, each datapoint shown, read-out: Percentage inhibition of ligand binding, Adrenergic α2A
[10] = compound at 0.03 μM, repeat assays, each datapoint shown, read-out: Percentage inhibition of ligand binding, Adrenergic α1B
[11] = compound at 0.1 μM, repeat assays, each datapoint shown, read-out: Percentage inhibition of ligand binding, Adrenergic α1B
[12] = compound at 0.03 μM, [3H]Rauwolscine, repeat assays, each datapoint shown, read-out: Percentage inhibition of ligand binding, Adrenergic α2B
[13] = compound at 0.1 μM, [3H]Rauwolscine, repeat assays, each datapoint shown, read-out: Percentage inhibition of ligand binding, Adrenergic α2B
[14] = compound at 0.1 μM, repeat assays, each datapoint shown
[15] = compound at 0.1 μM, repeat assays, each datapoint shown, 0.1 µM
[16] = compound at 0.03 μM, [3H]Rauwolscine, repeat assays, each datapoint shown, 0.03 µM
[17] = compound at 0.1 μM, repeat datapoints each shown
[18] = read-out: Percentage inhibition of ligand binding, Adrenergic α2A (0.03 μM), compound at 0.03 μM, repeat datapoints each shown
[19] = compound at 0.1 μM, repeat datapoints each shown, 0.1 µM
[20] = compound at 0.1 μM, [3H]Rauwolscine, repeat datapoints each shown, 0.1 µM
[21] = compound at 0.03 μM, repeat assays, each datapoint shown, read-out: Percentage inhibition of ligand binding, Adrenergic α2A

Row | Compound | inhibition at 0.1 µM [1, 4] | inhibition at 0.03 µM [2, 5] | inhibition at 0.1 µM [2, 6] | inhibition at 0.03 µM [3, 7] | inhibition at 0.1 µM [3, 8] | inhibition at 0.1 µM [1, 9] | inhibition at 0.03 µM [2, 10] | inhibition at 0.1 µM [2, 11] | inhibition at 0.03 µM [3, 12] | inhibition at 0.1 µM [3, 13] | Percentage inhibition of ligand binding, Adrenergic α2A [1, 14] | Percentage inhibition of ligand binding, Adrenergic α1B [2, 15] | Ki [1] | Percentage inhibition of ligand binding, Adrenergic α2B (0.1 μM) [3, 20] | Ki [3] | further results
1 | Cc1ccc(CCn2c3c(c4cc(C)ccc42)CN(C)CC3)cc1 [compound 180, 2,3,4,5-tetrahydro-2,8-dimethyl-5-(4-methylphenethyl)-1H-pyrido[4,3-b]indole] | 95% | 70% | 87% | 91% | 99% |  |  |  |  |  |  |  |  |  |  | 
2 | CCN1CCc2c(c3cc(C)ccc3n2CCc2ccncc2)C1 [compound 85] |  |  |  |  |  | 12% | -3% | 26% | 40% | 60% |  |  |  |  |  | 
3 | Cc1ccc2c(c1)c1c(n2CC2(c3ccccc3)OCCO2)CCN(C)C1 [compound 83] |  |  |  |  |  | 21% |  | 9% | 63% | 78% | 29% | 15% |  |  |  | 
4 | C/C(=C\n1c2c(c3cc(C)ccc31)CN(C)CC2)c1ccc(C)nc1 [compound 186] | 54% | 24% | 53% | 94% | 100% |  |  |  |  |  |  |  | 11 nM | 101% | 0.52 nM | Percentage inhibition of ligand binding, Adrenergic α2A (0.1 μM) [1, 17]: 72%; inhibition at 0.03 µM [1, 18]: 53%; Percentage inhibition of ligand binding, Adrenergic α1B (0.1 μM) [2, 19]: 55%; Percentage inhibition of ligand binding, Adrenergic α2B (0.03 μM) ([3]; compound at 0.03 μM, [3H]Rauwolscine, repeat datapoints each shown, 0.03 µM): 97%
5 | Cc1ccc2c(c1)c1c(n2C2=C(c3ccncc3)CCC2)CCN(C)C1 [compound 114] | 21% |  | 15% | 42% | 58% |  |  |  |  |  |  |  |  | 71% | 17.4 nM | 
6 | C/C(=C\n1c2c(c3cc(C)ccc31)CN(C)CC2)c1sccc1C [compound 189] | 81% | 26% |  | 96% | 104% |  |  |  |  |  |  |  | 2.86 nM | 107% | 0.86 nM | Percentage inhibition of ligand binding, Adrenergic α2A (0.1 μM) [1, 17]: 86%; inhibition at 0.03 µM [1, 18]: 71%; Percentage inhibition of ligand binding, Adrenergic α1B (0.1 μM) [2, 19]: 31% and 55%
7 | Cc1ccc(CCn2c3c(c4ccccc42)CN(C)CC3)cc1 [compound 181, 2,3,4,5-Tetrahydro-2-methyl-5-(4-methylphenethyl)-1H-pyrido[4,3-b]indole] | 89% | -4% | 30% | 70% | 92% |  |  |  |  |  |  |  |  |  |  | 
8 | Cc1ccc2c(c1)c1c(n2CCc2ccc(CO)nc2)CCN(C)C1 [compound 91] |  | 32% | 58% |  | 87% | 5% | 25% | 52% | 53% | 82% |  | 53% |  |  | 9.84 nM and 10.7 nM and 12 nM | inhibition at 0.03 µM [1, 21]: 6%; Percentage inhibition of ligand binding, Adrenergic α1B ([2]; compound at 0.03 μM, repeat assays, each datapoint shown, 0.03 µM): 28%; Percentage inhibition of ligand binding, Adrenergic α2B [3, 16]: 56%; Percentage inhibition of ligand binding, Adrenergic α2B ([3]; compound at 0.1 μM, [3H]Rauwolscine, repeat assays, each datapoint shown, 0.1 µM): 83%
9 | Cc1ccc2c(c1)c1c(n2C2=C(c3ccc(C)s3)CCC2)CCN(C)C1 [compound 190, 2,8-dimethyl-5-(2-(5-methylthiophen-2-yl)cyclopent-1-enyl)-2,3,4,5-tetrahydro-1H-pyrido[4,3-b]indole] | 70% | 9% | 14% | 88% | 84% |  |  |  |  |  |  |  | 12.8 nM | 99% | 2.26 nM | Percentage inhibition of ligand binding, Adrenergic α2A (0.1 μM) [1, 17]: 89%; inhibition at 0.03 µM [1, 18]: 49%; Percentage inhibition of ligand binding, Adrenergic α1B (0.1 μM) [2, 19]: 15%

Now from value to molecule, other results behind:

Row | inhibition at 0.1 µM [1, 4] | inhibition at 0.03 µM [2, 5] | inhibition at 0.1 µM [2, 6] | inhibition at 0.03 µM [3, 7] | inhibition at 0.1 µM [3, 8] | inhibition at 0.1 µM [1, 9] | inhibition at 0.03 µM [2, 10] | inhibition at 0.1 µM [2, 11] | inhibition at 0.03 µM [3, 12] | inhibition at 0.1 µM [3, 13] | Percentage inhibition of ligand binding, Adrenergic α2A [1, 14] | Percentage inhibition of ligand binding, Adrenergic α1B [2, 15] | Ki [1] | Percentage inhibition of ligand binding, Adrenergic α2B (0.1 μM) [3, 20] | Ki [3] | Compound | further results
10 |  |  |  |  |  |  |  |  |  |  | −9% | 43% |  |  |  | CN1CCc2c(n(CC(O)c3ccncc3)c3ccc(Cl)cc23)C1 (single isomer, unassigned) [41a] | Percentage inhibition of ligand binding, Adrenergic α2B [3, 16]: 14%
11 |  |  |  |  |  | 13% | 9% | 38% | 86% | 92% | 15% | 33% | 1660 nM |  | 2.5 nM | Cc1ccc2c(c1)c1c(n2CC(O)c2ccncc2)CCNC1 (single isomer, unassigned) [39a, 2-(8-methyl-1,2,3,4-tetrahydro-pyrido[4,3-b]indol-5-yl)-1-pyridin-4-yl-ethanol] | inhibition at 0.03 µM [1, 21]: 5%
12 |  |  |  |  |  | 22% | 81% | 91% | 93% | 101% | 27% | 96% | 234 nM |  | 1.42 nM | Cc1cnc2c(c1)c1c(n2CCc2ccc(C)nc2)CCN2CCCC12 (single isomer, unassigned) [74a, 10-methyl-7-(2-(6-methylpyridin-3-yl)ethyl)-2,3,5,6,7,11c-hexahydro-1H-pyrido[3′,2′:4,5]pyrrolo[2,3-g]indolizine] | Ki [2]: 4.72 nM
